# Measurements published in the supplement of paper PMC10307832.
# Tests used:
# Assay in all cases: relative viability (nuclei count vs DMSO), 5 days (fraction); higher = more cells survive
# [1] = tested on: ABC-1
# Outline: (§1)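 For relative viability, nuclei counts in treated wells were divided by those in vehicle wells. Lung cancer cell lines had been pin-tool dosed in 1536-well plates the day after seeding and cultured for 5 days, then fixed and stained in one step (final 0.05% Triton X-100, 1% formaldehyde, 1 ug/ml Hoechst) and imaged at 4×. Doses were one drug alone or a fixed anchor-drug dose plus five library-drug doses (not always all listed) in √10 steps, and values are duplicate-plate medians.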
# [2] = tested on: CAL-12T
# Outline: as §1
# [3] = tested on: COR-L23
# Outline: as §1
# [4] = tested on: EKVX
# Outline: as §1
# [5] = tested on: H3255
# Outline: as §1
# [6] = tested on: HCC-15
# Outline: as §1
# [7] = tested on: HCC-827
# Outline: as §1
# [8] = tested on: LK-2
# Outline: as §1
# [9] = tested on: NCI-H1355
# Outline: as §1
# [10] = tested on: NCI-H1437
# Outline: as §1
# [11] = tested on: NCI-H1650
# Outline: as §1
# [12] = tested on: NCI-H1651
# Outline: as §1
# [13] = tested on: NCI-H1734
# Outline: as §1
# [14] = tested on: NCI-H2228
# Outline: as §1
# [15] = tested on: NCI-H2405
# Outline: as §1
# [16] = tested on: NCI-H322M
# Outline: as §1
# [17] = tested on: NCI-H520
# Outline: as §1
# [18] = tested on: NCI-H661
# Outline: as §1
# [19] = tested on: PC-14
# Outline: as §1
# [20] = tested on: PC-3 [JPC-3]
# Outline: as §1
# [21] = tested on: RERF-LC-KJ
# Outline: as §1
# [22] = tested on: SK-MES-1
# Outline: as §1
# [23] = tested on: SW 1573
# Outline: as §1
compound,measurement,setting,value
CC(C)Oc1cc(Nc2nc(N[C@@H](C)c3ccc(F)cn3)ncc2Cl)n[nH]1 [AZ23] + O=C(c1cc(Cc2n[nH]c(=O)c3ccccc23)ccc1F)N1CCN(C(=O)C2CC2)CC1 [Olaparib] (partner 8 µM),relative viability,[1]; first compound 0.01 µM,0.971
same,relative viability,[1]; first compound 0.03162 µM,0.781
same,relative viability,[1]; first compound 0.3162 µM,0.673
same,relative viability,[2]; first compound 0.01 µM,0.752
same,relative viability,[2]; first compound 0.03162 µM,0.747
same,relative viability,[2]; first compound 0.3162 µM,0.745
same,relative viability,[3]; first compound 0.01 µM,0.272
same,relative viability,[3]; first compound 0.03162 µM,0.365
same,relative viability,[3]; first compound 0.3162 µM,0.34
same,relative viability,[4]; first compound 0.01 µM,0.912
same,relative viability,[4]; first compound 0.03162 µM,0.97
same,relative viability,[4]; first compound 0.3162 µM,0.895
same,relative viability,[5]; first compound 0.01 µM,0.524
same,relative viability,[5]; first compound 0.03162 µM,0.581
same,relative viability,[5]; first compound 0.3162 µM,0.542
same,relative viability,[6]; first compound 0.01 µM,1.02
same,relative viability,[6]; first compound 0.03162 µM,0.698
same,relative viability,[6]; first compound 0.3162 µM,0.747
same,relative viability,[7]; first compound 0.01 µM,0.665
same,relative viability,[7]; first compound 0.03162 µM,0.764
same,relative viability,[7]; first compound 0.3162 µM,0.712
same,relative viability,[8]; first compound 0.01 µM,0.717
same,relative viability,[8]; first compound 0.03162 µM,0.825
same,relative viability,[8]; first compound 0.3162 µM,0.68
same,relative viability,[9]; first compound 0.01 µM,0.808
same,relative viability,[9]; first compound 0.03162 µM,0.771
same,relative viability,[9]; first compound 0.3162 µM,0.699
same,relative viability,[10]; first compound 0.01 µM,0.714
same,relative viability,[10]; first compound 0.03162 µM,0.618
same,relative viability,[10]; first compound 0.3162 µM,0.648
same,relative viability,[11]; first compound 0.01 µM,0.685
same,relative viability,[11]; first compound 0.03162 µM,0.97
same,relative viability,[11]; first compound 0.3162 µM,0.876
same,relative viability,[12]; first compound 0.01 µM,0.182
same,relative viability,[12]; first compound 0.03162 µM,0.166
same,relative viability,[12]; first compound 0.3162 µM,0.19
same,relative viability,[13]; first compound 0.01 µM,0.628
same,relative viability,[13]; first compound 0.03162 µM,0.673
same,relative viability,[13]; first compound 0.3162 µM,0.6
same,relative viability,[14]; first compound 0.01 µM,0.53
same,relative viability,[14]; first compound 0.03162 µM,0.775
same,relative viability,[14]; first compound 0.3162 µM,0.589
same,relative viability,[15]; first compound 0.01 µM,0.855
same,relative viability,[15]; first compound 0.03162 µM,0.903
same,relative viability,[15]; first compound 0.3162 µM,0.831
same,relative viability,[16]; first compound 0.01 µM,0.564
same,relative viability,[16]; first compound 0.03162 µM,0.749
same,relative viability,[16]; first compound 0.3162 µM,0.741
same,relative viability,[17]; first compound 0.01 µM,0.346
same,relative viability,[17]; first compound 0.03162 µM,0.328
same,relative viability,[17]; first compound 0.3162 µM,0.312
same,relative viability,[18]; first compound 0.01 µM,0.823
same,relative viability,[18]; first compound 0.03162 µM,0.792
same,relative viability,[18]; first compound 0.3162 µM,0.738
same,relative viability,[19]; first compound 0.01 µM,0.189
same,relative viability,[19]; first compound 0.03162 µM,0.36
same,relative viability,[19]; first compound 0.3162 µM,0.296
same,relative viability,[20]; first compound 0.01 µM,1.35
same,relative viability,[20]; first compound 0.03162 µM,1.41
same,relative viability,[20]; first compound 0.3162 µM,1.17
same,relative viability,[21]; first compound 0.01 µM,1.06
same,relative viability,[21]; first compound 0.03162 µM,0.875
same,relative viability,[21]; first compound 0.3162 µM,0.917
same,relative viability,[22]; first compound 0.03162 µM,0.833
same,relative viability,[22]; first compound 0.3162 µM,0.764
same,relative viability,[23]; first compound 0.01 µM,0.649
same,relative viability,[23]; first compound 0.03162 µM,0.613
same,relative viability,[23]; first compound 0.3162 µM,0.508
